Experimental data taken from patent US20100298141A1, “SUBSTITUTED PYRIDINE N-OXIDE HERBICIDES” (E. I. DU PONT DE NEMOURS AND COMPANY, priority 2007, published 2010).

Assays:
Surinam grass = test: Test C pre-/postemergence test; type: in vivo, Brachiaria decumbens; details: for Plant response rating, Surinam Grass: 31 g ai/ha, scale 0 to 100 (0 no effect, 100 complete control)
Method in brief: (§1)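 Compounds in a non-phytotoxic solvent with surfactant applied preemergence to seeded pots and, at the same time, postemergence to plants 2–18 cm tall (1- to 4-leaf stage). Paddy tests: pots flooded to 3 cm, compound applied into the water, depth held throughout.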

giant foxtail = test: Test A pre-/postemergence greenhouse test; type: in vivo, Setaria faberi; details: for Foxtail, Giant plant response rating: 0 to 100 scale; for Plant response rating, Foxtail, Giant: 0 to 100 scale where 0 is no effect and 100 is complete control
Method in brief: (§2)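 Seeds sown in a loam soil–sand blend got a preemergence directed soil spray of compound in a non-phytotoxic solvent mixture containing surfactant. Postemergence sprays of the same formulation went at the same time onto plants 2–10 cm tall at the one- to two-leaf stage. Injury was scored visually against untreated controls after about ten days in the greenhouse.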

lambsquarters = test: Test C pre-/postemergence test; type: in vivo, Chenopodium album; details: for Plant response rating, Lambsquarters: 31 g ai/ha, scale 0 to 100 (0 no effect, 100 complete control)
Method in brief: as §1

pigweed = test: Test C pre-/postemergence test; type: in vivo, Amaranthus retroflexus; details: for Plant response rating, Pigweed: 31 g ai/ha, scale 0 to 100 (0 no effect, 100 complete control)
Method in brief: as §1

barnyardgrass [1] = test: Test C flooded paddy test; type: in vivo, Echinochloa crus-galli; details: Flood
Method in brief: (§3)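 Ratings were visual and made relative to untreated controls after 13 to 15 greenhouse days.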

soybean = test: Test C pre-/postemergence test; type: in vivo, Glycine max; details: for Plant response rating, Soybean: 31 g ai/ha, scale 0 to 100 (0 no effect, 100 complete control)
Method in brief: as §1

downy brome = test: Test C pre-/postemergence test; type: in vivo, Bromus tectorum; details: for Plant response rating, Bromegrass, Downy: 31 g ai/ha, scale 0 to 100 (0 no effect, 100 complete control)
Method in brief: as §1

woolly cupgrass = test: Test C pre-/postemergence test; type: in vivo, Eriochloa villosa; details: for Plant response rating, Cupgrass, Woolly: 31 g ai/ha, scale 0 to 100 (0 no effect, 100 complete control)
Method in brief: as §1

duck salad = test: Test C flooded paddy test; type: in vivo, Heteranthera limosa; details: Flood
Method in brief: as §3

barnyardgrass [2] = test: Test A pre-/postemergence greenhouse test; type: in vivo, Echinochloa crus-galli; details: for Barnyardgrass plant response rating: 0 to 100 scale; for Plant response rating, Barnyardgrass: 0 to 100 scale where 0 is no effect and 100 is complete control
Method in brief: as §2

crabgrass = test: Test A pre-/postemergence greenhouse test; type: in vivo, Digitaria sanguinalis; details: for Crabgrass, Large plant response rating: 0 to 100 scale; for Plant response rating, Crabgrass, Large: 0 to 100 scale where 0 is no effect and 100 is complete control
Method in brief: as §2

blackgrass = test: Test C pre-/postemergence test; type: in vivo, Alopecurus myosuroides; details: for Plant response rating, Blackgrass: 31 g ai/ha, scale 0 to 100 (0 no effect, 100 complete control)
Method in brief: as §1

velvetleaf [3] = test: Test A pre-/postemergence greenhouse test; type: in vivo, Abutilon theophrasti; details: for Velvetleaf plant response rating: 0 to 100 scale; for Plant response rating, Velvetleaf: 0 to 100 scale where 0 is no effect and 100 is complete control
Method in brief: as §2

velvetleaf [4] = test: Test C pre-/postemergence test; type: in vivo, Abutilon theophrasti; details: for Plant response rating, Velvetleaf: 31 g ai/ha, scale 0 to 100 (0 no effect, 100 complete control)
Method in brief: as §1

catchweed bedstraw = test: Test C pre-/postemergence test; type: in vivo, Galium aparine; details: for Plant response rating, Galium: 31 g ai/ha, scale 0 to 100 (0 no effect, 100 complete control)
Method in brief: as §1

common ragweed = test: Test C pre-/postemergence test; type: in vivo, Ambrosia elation; details: for Plant response rating, Ragweed: 31 g ai/ha, scale 0 to 100 (0 no effect, 100 complete control)
Method in brief: as §1

green foxtail = test: Test C pre-/postemergence test; type: in vivo, Setaria viridis; details: for Plant response rating, Foxtail, Green: 31 g ai/ha, scale 0 to 100 (0 no effect, 100 complete control)
Method in brief: as §1

[5] = 62 g ai/ha, Preemergence, scale 0 to 100
[6] = Postemergence, 125 g ai/ha, 0 is no effect, 100 is complete control
[7] = Postemergence, 500 g ai/ha, 0 is no effect, 100 is complete control
[8] = Preemergence, 125 g ai/ha, 0 no effect, 100 complete control
[9] = 31 g ai/ha, scale 0 to 100 (0 no effect, 100 complete control)
[10] = 62 g ai/ha, scale 0 to 100, 0 no effect, 100 complete control, 13 to 15 days
[11] = 125 g ai/ha, scale 0 to 100, 0 no effect, 100 complete control, 13 to 15 days
[12] = 250 g ai/ha, scale 0 to 100, 0 no effect, 100 complete control, 13 to 15 days
[13] = preemergence, 125 g ai/ha, scale 0 (no effect) to 100 (complete control)
[14] = 125 g ai/ha, preemergence, scale 0 (no effect) to 100 (complete control)
[15] = preemergence, 250 g ai/ha, scale 0 (no effect) to 100 (complete control)

SMILES: Cn1nc(C(F)(F)F)c(C[S+]([O-])c2cc(C(F)(F)F)cc[n+]2[O-])c1Cl (racemic) [Compound 34]
- Surinam Grass plant response rating (Surinam grass; [5]): 0
- Plant response rating, Surinam Grass (Surinam grass; Preemergence): 0
- Foxtail, Giant plant response rating (giant foxtail; [6]): 10
- Foxtail, Giant plant response rating (giant foxtail; [7]): 60
- Foxtail, Giant plant response rating (giant foxtail; [8]): 100
- Plant response rating, Foxtail, Giant (giant foxtail; Preemergence, 500 g ai/ha): 100
- Lambsquarters plant response rating (lambsquarters; [5]): 50
- Plant response rating, Lambsquarters (lambsquarters; Preemergence): 0
- Pigweed plant response rating (pigweed; [5]): 100
- Plant response rating, Pigweed (pigweed; Preemergence): 100
- Plant response rating, Barnyardgrass (barnyardgrass [1]; [9]): 0
- Plant response rating, Barnyardgrass (barnyardgrass [1]; [10]): 0
- Plant response rating, Barnyardgrass (barnyardgrass [1]; [11]): 0
- Plant response rating, Barnyardgrass (barnyardgrass [1]; [12]): 30
- Soybean plant response rating (soybean; [5]): 0
- Plant response rating, Soybean (soybean; Preemergence): 0
- Bromegrass, Downy plant response rating (downy brome; [5]): 0
- Plant response rating, Bromegrass, Downy (downy brome; Preemergence): 0
- Plant response rating (0 to 100), Bromegrass, Downy (downy brome; Preemergence, 250 g ai/ha): 20
- Bromegrass, Downy plant response rating (downy brome; [13]): 20
- Cupgrass, Woolly plant response rating (woolly cupgrass; [5]): 35
- Plant response rating, Cupgrass, Woolly (woolly cupgrass; Preemergence): 35
- Plant response rating (0 to 100), Cupgrass, Woolly (woolly cupgrass; Preemergence, 250 g ai/ha): 75
- Plant response rating, Ducksalad (duck salad; [9]): 0
- Plant response rating, Ducksalad (duck salad; [10]): 75
- Plant response rating, Ducksalad (duck salad; [11]): 80
- Plant response rating, Ducksalad (duck salad; [12]): 85
- Barnyardgrass plant response rating (barnyardgrass [2]; [6]): 40
- Barnyardgrass plant response rating (barnyardgrass [2]; [7]): 60
- Barnyardgrass plant response rating (barnyardgrass [2]; [8]): 80
- Plant response rating, Barnyardgrass (barnyardgrass [2]; Preemergence, 500 g ai/ha): 100
- Crabgrass, Large plant response rating (crabgrass; [6]): 10
- Crabgrass, Large plant response rating (crabgrass; [7]): 70
- Crabgrass, Large plant response rating (crabgrass; [8]): 60
- Plant response rating, Crabgrass, Large (crabgrass; Preemergence, 500 g ai/ha): 70
- Blackgrass plant response rating (blackgrass; [5]): 30
- Plant response rating, Blackgrass (blackgrass; Preemergence): 30
- Plant response rating (0 to 100), Blackgrass (blackgrass; Preemergence, 250 g ai/ha): 65
- Blackgrass plant response rating (blackgrass; [13]): 50
- Velvetleaf plant response rating (velvetleaf [3]; [6]): 30
- Velvetleaf plant response rating (velvetleaf [3]; [7]): 60
- Velvetleaf plant response rating (velvetleaf [3]; [8]): 30
- Plant response rating, Velvetleaf (velvetleaf [3]; Preemergence, 500 g ai/ha): 60
- Velvetleaf plant response rating (velvetleaf [4]; [5]): 70
- Plant response rating, Velvetleaf (velvetleaf [4]; Preemergence): 40
- Plant response rating, Galium (catchweed bedstraw; Preemergence): 0
- Plant response rating (0 to 100), Galium (catchweed bedstraw; Preemergence, 250 g ai/ha): 100
- Ragweed plant response rating (common ragweed; [5]): 45
- Plant response rating, Ragweed (common ragweed; Preemergence): 45
- Foxtail, Green plant response rating (green foxtail; [5]): 50
- Plant response rating, Foxtail, Green (green foxtail; Preemergence): 10
- Plant response rating (0 to 100), Foxtail, Green (green foxtail; Preemergence, 250 g ai/ha): 100

SMILES: Cn1nc(C(F)(F)F)c(C[S+]([O-])c2cc(Br)cc[n+]2[O-])c1Cl (racemic) [Compound 35]
- Surinam Grass plant response rating (Surinam grass; [5]): 55
- Surinam Grass plant response rating (Surinam grass; [14]): 100
- Plant response rating, Surinam Grass (Surinam grass; Preemergence): 30
- Surinam Grass plant response rating (Surinam grass; [15]): 100
- Foxtail, Giant plant response rating (giant foxtail; [6]): 50
- Foxtail, Giant plant response rating (giant foxtail; [7]): 80
- Foxtail, Giant plant response rating (giant foxtail; [8]): 100
- Plant response rating, Foxtail, Giant (giant foxtail; Preemergence, 500 g ai/ha): 100
- Lambsquarters plant response rating (lambsquarters; [5]): 100
- Lambsquarters plant response rating (lambsquarters; [14]): 100
- Plant response rating, Lambsquarters (lambsquarters; Preemergence): 100
- Lambsquarters plant response rating (lambsquarters; [15]): 100
- Pigweed plant response rating (pigweed; [5]): 100
- Pigweed plant response rating (pigweed; [14]): 100
- Plant response rating, Pigweed (pigweed; Preemergence): 100
- Pigweed plant response rating (pigweed; [15]): 100
- Plant response rating, Barnyardgrass (barnyardgrass [1]; [9]): 0
- Plant response rating, Barnyardgrass (barnyardgrass [1]; [10]): 0
- Plant response rating, Barnyardgrass (barnyardgrass [1]; [11]): 20
- Plant response rating, Barnyardgrass (barnyardgrass [1]; [12]): 40
- Soybean plant response rating (soybean; [5]): 0
- Soybean plant response rating (soybean; [14]): 10
- Plant response rating, Soybean (soybean; Preemergence): 0
- Soybean plant response rating (soybean; [15]): 60
- Bromegrass, Downy plant response rating (downy brome; [5]): 0
- Bromegrass, Downy plant response rating (downy brome; [14]): 0
- Plant response rating, Bromegrass, Downy (downy brome; Preemergence): 0
- Bromegrass, Downy plant response rating (downy brome; [15]): 30
- Cupgrass, Woolly plant response rating (woolly cupgrass; [5]): 80
- Cupgrass, Woolly plant response rating (woolly cupgrass; [14]): 85
- Plant response rating, Cupgrass, Woolly (woolly cupgrass; Preemergence): 0
- Cupgrass, Woolly plant response rating (woolly cupgrass; [15]): 100
- Plant response rating, Ducksalad (duck salad; [9]): 60
- Plant response rating, Ducksalad (duck salad; [10]): 60
- Plant response rating, Ducksalad (duck salad; [11]): 85
- Plant response rating, Ducksalad (duck salad; [12]): 95
- Barnyardgrass plant response rating (barnyardgrass [2]; [6]): 50
- Barnyardgrass plant response rating (barnyardgrass [2]; [7]): 80
- Barnyardgrass plant response rating (barnyardgrass [2]; [8]): 70
- Plant response rating, Barnyardgrass (barnyardgrass [2]; Preemergence, 500 g ai/ha): 100
- Crabgrass, Large plant response rating (crabgrass; [6]): 50
- Crabgrass, Large plant response rating (crabgrass; [7]): 80
- Crabgrass, Large plant response rating (crabgrass; [8]): 60
- Plant response rating, Crabgrass, Large (crabgrass; Preemergence, 500 g ai/ha): 80
- Blackgrass plant response rating (blackgrass; [5]): 0
- Plant response rating, Blackgrass (blackgrass; Preemergence): 0
- Blackgrass plant response rating (blackgrass; [15]): 50
- Velvetleaf plant response rating (velvetleaf [3]; [6]): 50
- Velvetleaf plant response rating (velvetleaf [3]; [7]): 60
- Velvetleaf plant response rating (velvetleaf [3]; [8]): 30
- Plant response rating, Velvetleaf (velvetleaf [3]; Preemergence, 500 g ai/ha): 90
- Velvetleaf plant response rating (velvetleaf [4]; [5]): 100
- Velvetleaf plant response rating (velvetleaf [4]; [14]): 100
- Plant response rating, Velvetleaf (velvetleaf [4]; Preemergence): 55
- Velvetleaf plant response rating (velvetleaf [4]; [15]): 100
- Galium plant response rating (catchweed bedstraw; [5]): 100
- Galium plant response rating (catchweed bedstraw; [14]): 100
- Plant response rating, Galium (catchweed bedstraw; Preemergence): 0
- Galium plant response rating (catchweed bedstraw; [15]): 100
- Ragweed plant response rating (common ragweed; [5]): 0
- Ragweed plant response rating (common ragweed; [14]): 50
- Plant response rating, Ragweed (common ragweed; Preemergence): 0
- Ragweed plant response rating (common ragweed; [15]): 85
- Foxtail, Green plant response rating (green foxtail; [5]): 80
- Foxtail, Green plant response rating (green foxtail; [14]): 100
- Plant response rating, Foxtail, Green (green foxtail; Preemergence): 0
- Foxtail, Green plant response rating (green foxtail; [15]): 100
